Here are results for 1 compound from patent US12403107B2, “Lipid pharmaceutical preparation and application thereof” (HUZHOU INNOVATION PHARMACEUTICAL CO., LTD., priority 2019, dated 2025).

Read-outs that look alike come from different tables or passages of the source.

For data set [1] the following is noted: dose 60 mg/kg, infused into the muscle at a constant rate t = 0-2 hours, cited from earlier work.
The nature of data set [2]: Blood lidocaine concentration after 2-hour constant-rate intramuscular infusion, literature (Ikeda et al.). Format: in vivo, Rats. The settings on record: rat, dose 60 mg/kg, infusion t = 0-2 hours, calculated with elimination half-life = 2 hours, read-out: blood drug concentration of lidocaine.

Turning to `CCN(CC)CC(=O)Nc1c(C)cccc1C` [preparation in the reference, lidocaine], the “blood drug concentration of lidocaine” value is reported as 0 ng/mL in data set [1] (time 0 hour); 1900 ng/mL in data set [1] (time 0.25 hour); 5800 ng/mL in data set [1] (time 0.5 hour); 8200 ng/mL in data set [1] (time 1 hour); 10500 ng/mL in data set [1] (time 2 hour); 800 ng/mL in data set [1] (time 4 hour). The concentration at 6 h in data set [2] (time 6 hour) was 400 ng/mL. In data set [2] (time 8 hour), the concentration at 8 h was 200 ng/mL. The concentration at 12 h in data set [2] (time 12 hour) was 100 ng/mL. Moreover, the concentration at 15 h in data set [2] (time 15 hour) is 35.3 ng/mL. In data set [2] (time 18 hour), the concentration at 18 h is 6.25 ng/mL. In addition, the concentration at 24 h in data set [2] (time 24 hour) was 1.6 ng/mL. Moreover, in data set [2] (time 30 hour), the concentration at 30 h is 0.2 ng/mL. Moreover, the concentration at 36 h in data set [2] (time 36 hour) was 0 ng/mL. In data set [2] (time 42 hour), the concentration at 42 h was 0 ng/mL. Besides, in data set [2] (time 48 hour), the concentration at 48 h is 0 ng/mL. For the same compound, the concentration at 54 h in data set [2] (time 54 hour) was 0 ng/mL. The concentration at 60 h in data set [2] (time 60 hour) was 0 ng/mL. Further, the concentration at 66 h in data set [2] (time 66 hour) is 0 ng/mL. Moreover, in data set [2] (time 72 hour), the concentration at 72 h was 0 ng/mL.
